Results published in ChEMBL document CHEMBL1201862, “PubChem BioAssay data set” (2004).
Active and inactive are the calls of the source.

Key:
[1] = Luminescence Cell-Based Dose Retest to Confirm Inhibitors of Cancer Stem Cells. [Related pubchem assays (depositor defined):AID2717, AID2721]; assay type: functional; settings: Homo sapiens
[2] = target: FAD-linked sulfhydryl oxidase ALR (Homo sapiens, UniProt P55789); experiment: ALR-catalysed DTT oxidation blockers – biochemical, H2O2 detection, luminescence, cherry-pick, dose response (AID 493248)
FAD-linked sulfhydryl oxidase ALR, sequence (P55789 whole entry): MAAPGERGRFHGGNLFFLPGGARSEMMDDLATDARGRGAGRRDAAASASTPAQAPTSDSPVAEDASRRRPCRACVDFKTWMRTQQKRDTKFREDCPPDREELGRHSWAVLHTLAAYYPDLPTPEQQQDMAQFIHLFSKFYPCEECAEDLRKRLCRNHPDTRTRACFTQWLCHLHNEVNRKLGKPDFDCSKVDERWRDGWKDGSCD

INS1 = experiment: INS-1E survival protection against cytokine death – cell-based, luminescence, retest, dose response (AID 449756); assay type: functional; settings: Rattus norvegicus;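 further: cell death triggered by IL-1 beta plus TNF-alpha plus IFN-gamma mixture; protective hits raise ATP signal compared with cytokine alone wells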
[3] = Trypanosoma cruzi growth suppression in host cells – NIH3T3 host cells, beta-gal luminescence, confirmation (AID 2044); assay type: functional, cell-based;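 further: intracellular parasites grown in NIH/3T3 mouse fibroblasts as host cells; luminescent beta-galactosidase reporter signal from transgenic T. cruzi replicating inside host cells; inhibitors lower the luminescence signal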
[4] = NIH3T3 cell viability loss – ATP luminescence, mouse fibroblasts, counter-screen, dose response (AID 2010); assay type: functional, cell-based;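 further: cells exposed to compound for about 90 hours before reading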
[5] = target: T1, Heat shock factor protein 1 (Mus musculus, UniProt P38532); experiment: decrease of HSF1-responsive luciferase luminescence – cell-based, NIH3T3, dose retest, confirmation (AID 2382); assay type: functional;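 further: NIH3T3 fibroblasts with HSF1-driven luciferase reporter stressed by proteasome inhibitor MG132; luminescence from HSF1-driven luciferase expression after 8 hours of MG132 stress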
T1 sequence (P38532 whole entry): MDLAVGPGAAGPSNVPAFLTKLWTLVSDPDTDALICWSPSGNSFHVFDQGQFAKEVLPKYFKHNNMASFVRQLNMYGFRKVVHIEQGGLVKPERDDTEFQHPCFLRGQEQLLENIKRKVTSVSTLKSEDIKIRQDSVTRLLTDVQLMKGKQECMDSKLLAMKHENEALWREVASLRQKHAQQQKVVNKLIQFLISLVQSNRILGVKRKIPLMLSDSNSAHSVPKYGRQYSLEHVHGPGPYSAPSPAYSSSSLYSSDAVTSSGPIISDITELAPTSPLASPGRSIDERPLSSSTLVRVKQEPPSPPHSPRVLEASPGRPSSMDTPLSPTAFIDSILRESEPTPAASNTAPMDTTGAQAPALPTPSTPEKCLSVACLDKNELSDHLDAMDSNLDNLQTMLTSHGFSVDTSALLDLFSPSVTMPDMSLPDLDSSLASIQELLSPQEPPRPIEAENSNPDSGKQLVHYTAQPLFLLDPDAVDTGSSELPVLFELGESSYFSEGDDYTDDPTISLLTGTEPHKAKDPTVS

[6] = P. falciparum Dd2 growth inhibitors, dose response, SYBR Green, cherry-picked samples (AID 1159567); assay type: functional, cell-based
[7] = target: T2, Corticotropin-releasing factor receptor 2/Corticotropin-releasing factor-binding protein (Homo sapiens, UniProt P24387+Q13324); experiment: Dose Response confirmation of uHTS hits for small molecule antagonists of the CRF-binding protein and CRF-R2 receptor complex.; assay type: functional; settings: read-out: IC50_Mean
T2 sequence (Q13324 whole entry): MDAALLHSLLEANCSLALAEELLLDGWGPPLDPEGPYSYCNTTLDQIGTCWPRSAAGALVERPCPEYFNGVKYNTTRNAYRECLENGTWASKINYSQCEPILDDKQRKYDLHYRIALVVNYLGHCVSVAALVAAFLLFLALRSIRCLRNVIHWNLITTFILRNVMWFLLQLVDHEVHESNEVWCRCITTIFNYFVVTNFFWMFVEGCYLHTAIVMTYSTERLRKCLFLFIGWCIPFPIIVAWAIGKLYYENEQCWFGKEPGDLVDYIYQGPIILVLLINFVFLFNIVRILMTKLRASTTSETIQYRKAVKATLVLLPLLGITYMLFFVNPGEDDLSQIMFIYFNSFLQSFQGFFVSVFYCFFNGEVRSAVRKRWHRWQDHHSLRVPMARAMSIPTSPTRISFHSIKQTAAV
T2 sequence (P24387 whole entry): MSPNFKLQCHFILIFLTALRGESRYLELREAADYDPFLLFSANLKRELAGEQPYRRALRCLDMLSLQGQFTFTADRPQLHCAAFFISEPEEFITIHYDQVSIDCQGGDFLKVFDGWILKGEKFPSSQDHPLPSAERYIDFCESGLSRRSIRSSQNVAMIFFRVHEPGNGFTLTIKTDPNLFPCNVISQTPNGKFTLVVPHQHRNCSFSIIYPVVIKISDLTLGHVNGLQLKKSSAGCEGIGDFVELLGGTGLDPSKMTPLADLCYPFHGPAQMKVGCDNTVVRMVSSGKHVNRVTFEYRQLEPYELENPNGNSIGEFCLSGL

[8] = target: T2, Corticotropin-releasing factor receptor 2/Corticotropin-releasing factor-binding protein; experiment: activators of CRF receptor 2 with binding protein – uHTS hits, confirmation (AID 602473); assay type: functional; settings: read-out: EC50_Mean
[9] = reduction of Shn3 3'UTR-driven luciferase in osteoblasts – cell-based, Clone20 osteoblasts, firefly luciferase, cherry-picked, dose response (AID 624132); assay type: functional;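 further: firefly luciferase luminescence from reporter carrying the Shn3 3'UTR in osteoblasts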
[10] = target: T3, Rac GTPase-activating protein 1 (Homo sapiens, UniProt Q9H0H5); experiment: blockers of MgcRacGAP-driven Rac1 GTP hydrolysis – biochemical, ADP Hunter fluorescence, primary and confirmatory, confirmation (AID 624330); assay type: functional
T3 sequence (Q9H0H5 whole entry): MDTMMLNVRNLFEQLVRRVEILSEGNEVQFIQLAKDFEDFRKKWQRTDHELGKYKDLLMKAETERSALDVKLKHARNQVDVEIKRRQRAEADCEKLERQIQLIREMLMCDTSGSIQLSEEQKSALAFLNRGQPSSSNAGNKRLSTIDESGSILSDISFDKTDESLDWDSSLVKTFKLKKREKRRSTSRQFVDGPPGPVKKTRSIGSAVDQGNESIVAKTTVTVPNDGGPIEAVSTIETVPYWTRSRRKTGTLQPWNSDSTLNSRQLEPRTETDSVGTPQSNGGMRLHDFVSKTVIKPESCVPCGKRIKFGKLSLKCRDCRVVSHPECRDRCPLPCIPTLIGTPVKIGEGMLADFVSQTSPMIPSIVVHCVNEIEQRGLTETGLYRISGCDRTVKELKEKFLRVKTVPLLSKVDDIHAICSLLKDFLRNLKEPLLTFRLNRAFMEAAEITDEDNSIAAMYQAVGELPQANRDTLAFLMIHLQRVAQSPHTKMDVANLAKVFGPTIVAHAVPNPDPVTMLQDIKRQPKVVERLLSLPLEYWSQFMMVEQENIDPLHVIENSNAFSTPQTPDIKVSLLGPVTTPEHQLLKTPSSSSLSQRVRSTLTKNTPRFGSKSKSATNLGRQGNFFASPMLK

[11] = test system: Streptococcus sp. 'group A'; experiment: Streptococcus pyogenes SK(-)GAS viability under kanamycin – luminescence, BacTiterGlo, confirmation, counter-screen for streptokinase expression inhibitor project, dose response (AID 1900); assay type: functional, organism-based
Streptokinase A = target: T4, Streptokinase A (Streptococcus pyogenes serotype M1, UniProt P10520); experiment: viability-normalized secreted streptokinase activity reduction – plasminogen activation absorbance, OD405, dose response (AID 1914); assay type: functional, Streptococcus pyogenes M1 GAS;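 further: secreted streptokinase activity via plasminogen activation per viability signal from cell pellet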
T4 sequence (P10520 whole entry): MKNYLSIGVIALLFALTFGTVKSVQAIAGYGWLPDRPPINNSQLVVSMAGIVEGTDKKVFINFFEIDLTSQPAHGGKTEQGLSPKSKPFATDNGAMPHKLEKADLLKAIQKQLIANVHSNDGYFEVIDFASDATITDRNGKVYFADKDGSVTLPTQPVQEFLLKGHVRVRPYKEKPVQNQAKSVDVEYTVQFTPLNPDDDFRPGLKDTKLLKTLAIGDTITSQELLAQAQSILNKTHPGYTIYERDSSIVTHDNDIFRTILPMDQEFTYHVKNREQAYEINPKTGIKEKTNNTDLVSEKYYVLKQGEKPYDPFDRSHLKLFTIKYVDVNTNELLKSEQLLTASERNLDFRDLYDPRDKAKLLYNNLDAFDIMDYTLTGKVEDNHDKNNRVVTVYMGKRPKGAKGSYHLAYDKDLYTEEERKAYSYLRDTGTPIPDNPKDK

Streptococcus = experiment: GAS UMAA2166 growth inhibition – luminescence, BacTiterGlo, counter-screen for streptokinase expression inhibitor project, dose response (AID 1915); assay type: functional, organism-based;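 further: potency for reduction of bacterial viability or growth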

FC(F)(F)c1cccc(Nc2ncnc3ccccc23)c1
AC50 [1]: 1.43 µM (active)

Fc1ccc(N2CCN(Cc3ccccn3)CC2)cc1
AC50 [2]: 8.77 µM (active)

COc1ccc(NC(=O)N(C)C[C@H]2Oc3c(NS(=O)(=O)c4ccc(F)cc4)cccc3C(=O)N([C@H](C)CO)C[C@@H]2C)cc1
AC50 (INS1): > 260 µM (inactive)

COc1ccc(-c2nc3ccc(C)cn3c2NCc2ccccc2)cc1SC1CCCCC1
EC50 [3]: 1.2 µM (active)
EC50 [4]: > 60 µM (not active)
AC50 (INS1): 2.61 µM (active)

Cc1ccnc(NC(=O)CS(=O)(=O)c2ccccc2)c1
EC50 [5]: > 195 µM (not active)

C/C=C/c1ccc2c(c1)[C@H]1[C@H](CCN1C(=O)c1ccc3c(c1)OCO3)[C@H](CO)N2
AC50 [6]: 6.34 µM (active)

NS(=O)(=O)c1ccc(CNC(=O)c2cnccn2)cc1
EC50 [5]: > 195 µM (not active)

COC(=O)c1ccc(NC(=O)NC2CCCCC2)cc1
EC50 [5]: > 195 µM (not active)

Cc1ccsc1C(=O)NNC(=O)CCN1CCN(c2ccccc2)CC1
AC50 [2]: 4.88 µM (active)

Cc1ccc([N+](=O)[O-])cc1N(CC(=O)Nc1ccc(S(=O)(=O)Nc2cccc(C(F)(F)F)c2)cc1)S(C)(=O)=O
EC50 [3]: 1.86 µM (active)
EC50 [4]: > 60 µM (not active)
AC50 [1]: 3.7 µM (active)
AC50 (INS1): 2.56 µM (active)

C=C1CCN([C@@H](CC(C)C)C(=O)Nc2nc3ccc(Cl)cc3s2)S(=O)(=O)c2ccccc21
AC50 [1]: 5.19 µM (active)

CN(Cc1ccccc1)S(=O)(=O)c1nnc(NC(=O)c2ccc(F)cc2)s1
IC50 [7]: < 0.368 µM (active)
EC50 [8]: > 53 µM (inactive)

O=C(Cc1ccc(-n2cccc2)cc1)N1CCN(c2ccccc2F)CC1
IC50 [7]: > 47.1 µM (inactive)
EC50 [8]: > 53 µM (inactive)

O=C(O)C1(Nc2ccccc2Cl)CCCC1
AC50 [9]: 29.5 µM (active)

COc1cc(/C=N/NC(=O)c2ccc(O)nn2)ccc1O
AC50 [2]: 1.22 µM (active)
IC50 [10]: 23.9 µM (active)

C[C@H]1CN([C@@H](C)CO)C(=O)c2c(c3ccccc3n2C)-c2ccccc2CO[C@@H]1CN(C)C(=O)Nc1cccc(F)c1
AC50 [6]: 5.29 µM (active)

COc1ccc(NC2CCCN(C(=O)CCc3ccccc3F)C2)cc1 (centres undefined)
AC50 [2]: 13.4 µM (active)
IC50 [10]: 65.4 µM (active)

CCOC(=O)C1CCCN(C2CC(=O)N(c3ccccc3)C2=O)C1 (centres undefined)
IC50 [7]: > 47.1 µM (inactive)
EC50 [8]: > 53 µM (inactive)

COc1ccc(C2NC(=O)C(C#N)=C(S)N2c2ccccc2)cc1OC (centres undefined)
AC50 [2]: < 0.014 µM (active)

CC(C)(C)c1ccc(/C=C2\SC(=O)N(CCNC(=O)c3cccc(S(=O)(=O)N4CCOCC4)c3)C2=O)cc1
EC50 [5]: 2.43 µM (active)

CC(C)C(=O)Nc1ccc(C(=O)N2CCN(C(=O)c3ccco3)CC2)cc1
EC50 [5]: > 195 µM (not active)

CSCc1ccc(C(=O)NC(C)c2cnn(-c3ccccn3)c2C)o1 (centres undefined)
AC50 [2]: 9.51 µM (active)

Cn1c(-c2ccccc2)cnc1NCc1ccc(-c2ccccc2)cc1
AC50 [1]: 1.34 µM (active)
IC50 [10]: 78.1 µM (active)

Cc1ccc(NC2CCCN(C(=O)c3cc4ncccn4n3)C2)cc1C (centres undefined)
AC50 [2]: 4.14 µM (active)

C[C@H](CO)N1C[C@H](C)[C@@H](CN(C)C(=O)c2ccccc2F)Oc2ncc(C#Cc3ccccc3)cc2C1=O
AC50 [6]: 4.79 µM (active)

COc1ccc(S(=O)(=O)N(CC(C)C)C2CCS(=O)(=O)C2)cc1OC (centres undefined)
IC50 [7]: > 47.1 µM (inactive)
EC50 [8]: > 53 µM (inactive)

CC1CCC(NC(=O)Nc2cccs2)CC1 (centres undefined)
AC50 [2]: 1.18 µM (active)

COc1ccccc1OCCCCOc1ccccc1C(C)=O
AC50 (INS1): 12 µM (active)

COc1ccc(C(=O)Nc2ccc3c(c2)nc(CN2CCCC2)n3C)cc1
EC50 [5]: > 195 µM (not active)

CCc1sc(C(=O)NCCc2ccc(S(N)(=O)=O)cc2)cc1Br
IC50 [7]: > 47.1 µM (inactive)
EC50 [8]: > 53 µM (inactive)

O=C1Nc2ccccc2N(O)N1c1cc(-c2cccc(Cl)c2)no1
AC50 [2]: 1.92 µM (active)
IC50 [7]: > 47.1 µM (inactive)
EC50 [8]: 6.32 µM (active)

CN1C(=O)NC(c2ccccc2)(C(F)(F)F)S/C1=C(/C#N)c1nnc(N2CCOCC2)n1-c1ccccc1 (centres undefined)
EC50 [11]: > 150 µM (not active)
EC50 (Streptokinase A): > 150 µM (not active)
EC50 (Streptococcus): > 150 µM (not active)
IC50 [7]: > 47.1 µM (inactive)
EC50 [8]: > 53 µM (inactive)

COC(=O)Nc1ccc(S(=O)(=O)N2CCC(C(=O)N(C)C3CCCCC3)CC2)cc1
AC50 [2]: 1.92 µM (active)

O=C(NNC(=O)c1ccccc1OCc1ccc(F)cc1)c1ccccc1O
EC50 [11]: 3.68 µM (active)
EC50 (Streptococcus): 3.62 µM (active)
AC50 (INS1): 2.67 µM (active)

C/[N+]([O-])=C\C1C(=O)CC(C)(C)CC1=O
EC50 [5]: > 195 µM (not active)
IC50 [7]: > 47.1 µM (inactive)
EC50 [8]: > 53 µM (inactive)

CN(C(=O)c1ccccc1C(=O)OCC(=O)Nc1ccc(S(N)(=O)=O)cc1)c1ccccc1
EC50 [5]: > 195 µM (not active)
